Results from patent US8323627B2, “Monoester of N-undecylenoyl phenylalanine and polyol, method for preparing same, and use of said esters as a skin lightening agent” (Societe d'Exploitation de Produits pour les Industries …, priority 2008, dated 2012).

Key:
B16/F1 melanocytes [1] = experiment: Inhibition of extracellular melanin production in B16/F1 melanocyte cultures; type: cell-based, Mouse; settings: for % Inhibition of extracellular melanin production relative to the control / Extracellular melanin (control: 98 μg ± 4 μg/ml): 72 hours incubation; for Depigmenting effect (summary in text of Table 1): B16/F1 melanocytes, doses of Table 1
Protocol: The influence of N-undecylenoyl phenylalanine monoglyceride, arbutin and N-undecylenoyl phenylalanine on the production of extracellular melanin, in B16/F1 melanocyte cultures, was compared.
Mouse melanocytes of the B16/F1 line cultured as monolayers are seeded in 96-well culture plates at a density of 1500 cells/well. The cells are cultured in a culture medium (MCM medium) at 37° C. under a humid atmosphere containing 5% CO2. The cells are used at 50% of confluence. The MCM medium has the following composition: DMEM medium (Dulbecco's Modified Eagle's Medium) containing 4.5 g/l of glucose supplemented with L-glutamine (2 mM), penicillin (50 IU/ml), streptomycin (50 μg/ml) and fetal calf serum (10% v/v). […] The melanocyte cultures are incubated in the presence of the test product or of the reference products for 72 hours at 37° C., under a humid atmosphere containing 5% CO2. Control cultures are incubated, in the absence of product, in the MCM medium. These control cultures are prepared on each culture plate. Each test is performed six times. After incubation for 72 hours, the incubation media of the cells (n=6) are taken up and stored at −80° C. until the time of evaluation of the effects. The extracellular melanin is quantified by spectrophotometry at 450 nm. A melanin calibration range is prepared in parallel. The results are expressed as μg/ml of extracellular melanin and as a percentage of inhibition relative to the control group in Table 1 below.

B16/F1 melanocytes [2] = experiment: Cytotoxic effect in B16/F1 melanocyte cultures (Bradford total protein); type: cell-based, Mouse; settings: for Cytotoxic effects (summary of Table 2): B16/F1 melanocytes, doses of Table 2; for % Decrease of the total amount of protein relative to the control / Evaluation (cytotoxicity): 72 hours incubation
Protocol: Study of the Cytotoxic Effect of the Compound of Formula (I) in B16/F1 melanocyte Cultures
Evaluation of the presence of cytotoxic effects is performed using the Bradford technique by staining with Coomassie blue (Bradford M., “A rapid and sensitive method for the quantification of microgram quantities of protein utilizing the principle of protein-dye binding”, Anal. Biochem., 1976, 72, 248-254). The B16/F1 melanocytes are incubated after seeding with the dilutions of the test products. After 72 hours of incubation, the B16/F1 melanocytes are washed and then lyzed, and Bradford's reagent is then added. After incubation for 5 minutes at room temperature, a spectrophotometric reading is taken at 640 nm in parallel with an albumin calibration range. The cytotoxicity is proven for a decrease greater than or equal to 20% of the total amount of protein. The results are expressed as a percentage decrease of the total amount of protein, in Table 2 below.

SMILES	% Inhibition of extracellular melanin production relative to the control (B16/F1 melanocytes [1]; test product 40 μg/ml) [%]	Extracellular melanin (control: 98 μg ± 4 μg/ml) (B16/F1 melanocytes [1]; test product 40 μg/ml, n=6) [µg/mL]	Cytotoxic effects (summary of Table 2) (B16/F1 melanocytes [2])	% Decrease of the total amount of protein relative to the control (B16/F1 melanocytes [2]; test product 40 μg/ml)	% Decrease of the total amount of protein relative to the control (B16/F1 melanocytes [2]; test product 80 μg/ml)	Depigmenting effect (summary in text of Table 1) (B16/F1 melanocytes [1])	% Inhibition of extracellular melanin production relative to the control (B16/F1 melanocytes [1]; test product 80 μg/ml)	Extracellular melanin (control: 98 μg ± 4 μg/ml) (B16/F1 melanocytes [1]; test product 80 μg/ml)	% Decrease of the total amount of protein relative to the control (B16/F1 melanocytes [2]; test product 60 μg/ml)	% Decrease of the total amount of protein relative to the control (B16/F1 melanocytes [2]; test product 50 μg/ml) [%]	Evaluation (cytotoxicity) (B16/F1 melanocytes [2]; test product 50 μg/ml)	Evaluation (cytotoxicity) (B16/F1 melanocytes [2]; test product 80 μg/ml)
OC[C@H]1O[C@@H](Oc2ccc(O)cc2)[C@H](O)[C@@H](O)[C@@H]1O [Arbutin, reference compound]	61	39 ± 3	–	–	–	–	–	–	–	–	–	–
C=CCCCCCCCCC(=O)NC(Cc1ccccc1)C(=O)OCC(O)CO (stereo not shown) [Compound (A), N-undecylenoyl phenylalanine monoglyceride]	15	84 ± 8	absence of cytotoxic effects	No observed decrease	No observed decrease	depigmenting effect	58%	42 ± 1 µg/mL	–	–	–	–
C=CCCCCCCCCC(=O)NC(Cc1ccccc1)C(=O)OCC(O)COCC(O)CO (stereo not shown) [Compound (B), N-undecylenoyl phenylalanine diglyceryl ester]	–	–	absence of cytotoxic effects	–	No observed decrease	depigmenting effect	34%	54 ± 3 µg/mL	No observed decrease	–	–	–
C=CCCCCCCCCC(=O)N[C@@H](Cc1ccccc1)C(=O)O [N-Undecylenoyl phenylalanine, N-undecylenoyl phenylalanine]	40	59 ± 3	cytotoxic	–	80%	–	Cytotoxicity	Cytotoxicity	–	32	Cytotoxic (The cytotoxicity is proven for a decrease greater than or equal to 20% of the total amount of protein)	Cytotoxic (The cytotoxicity is proven for a decrease greater than or equal to 20% of the total amount of protein)
